Source: patent publication EP1210336B1, “SUBSTITUTED BENZIMIDAZOLES AS NON-NUCLEOSIDE INHIBITORS OF REVERSE TRANSCRIPTASE” (THE UNITED STATES OF AMERICA, as represented by the …, priority 1999, dated 2001)
Read-outs that look alike come from different tables or passages of the source.

How the values were obtained:
[1] = molecular target: T1, HIV-1 WT RT (Human immunodeficiency virus type 1 group M subtype B, UniProt P03366); test: biochemical; conditions: for IC50: read-out: IC50
T1 construct: purified RT protein (0.015 mg/mL) was incubated in a 100 µL reaction mixture

[2] = test system: WT virus (NL4-3); test: microbe, parasite or virus in culture; assay type: cell-based, HIV-1; conditions: for EC50: Human immunodeficiency virus 1, NL43, CEM-SS, read-out: EC50
Protocol: Evaluation of these compounds for the inhibition of HIV-1 was determined as the fifty percent cell culture inhibitory concentration (CIC50) in CEMSS cell culture with WT virus (NL4-3).
(§1) In this Example, the antiviral and cellular toxicity of NNRTIs was investigated, using the cytopathic cell killing assay described by Yang (Yang et al., "Characteristics of a Group of Non-nucleoside Reverse Transcriptase Inhibitors with Structural Diversity and Potent Anti-Human Immunodeficiency Virus Activity," Leukemia 9:S75-S85 [1995]). Briefly, in this method cells (e.g., the CEM-SS cell line, available from the NIAID AIDS Research and Reference Program [ARRRP]) were seeded at a density of 5 x 10^3 cells/well, into the wells of a 96-well microtiter plate. The cells were then infected with HIV virus (either mutant or WT), at a multiplicity of infection (MOI) previously determined to provide complete cell killing by 6 days of culture post-infection (e.g., MOI of 0.01-0.05). Each of the HIV isolates was pre-titered to induce equivalent levels of infection based on cell killing or virus production, prior to their use in these assays. A range of test compound concentrations was added to the wells in triplicate (e.g., serial half-log dilutions) to evaluate inhibition of HIV infection. Controls for each assay included drug controls (drug colorimetric control wells), drug cytotoxicity control wells (cells with drug), virus control wells (cells with virus), and cell viability controls (cells only). Positive control drugs (e.g., AZT and ddC) were also run in parallel.
(§2) After six days of incubation at 37°C, cell viability was determined spectrophotometrically at 450 nm for each well, using the metabolic reduction of XTT to a soluble colored formazan. (See, Gartner and Popovic, "Virus Isolation and Production, in Aldovini and Walker (eds.), Techniques in HIV Research, Stockton Press, NY, pp. […] [1991]; and Nara and Fischinger, "Quantitative Infectivity Assay for HIV-1 and HIV-2," Nature 332:469-470 [1988]).
(§3) The in vitro therapeutic index (TI50) was defined as the fold-difference between the EC50 and IC50. The results for the various compounds are included in Figures 8 and 19.

[3] = test system: NL4-3 (WT); test: Cytopathic cell killing assay, cross-resistance profile, infected MT-4 cells; assay type: cell-based, HIV-1
Source text: (§4) The various HIV isolates tested in the Figures are those corresponding to wild-type virus (NL4-3) and the other strains listed by their RT mutations. The three 4xAZT isolates included in the Figures represent AZT drug-resistant variants. For example, the 4xAZT/L100I isolate has five mutations: four mutations confer increased resistance to AZT, and the other mutation is located within the NNRTI binding pocket. TZB and nevir. (nevirapine) are two well-known NNRTIs, included in this experiment for comparison purposes. […]
as §1, §2, §3

[4] = test system: HIV-1 isolate 4xAZT/Y181C; test: as above; assay type: cell-based
Source text: as §4, §1, §2, §3

[5] = test system: HIV-1 isolate 4xAZT; test: as above; assay type: cell-based
Source text: as §4, §1, §2, §3

[6] = test system: HIV-1 variant A98G; test: as above; assay type: cell-based
Source text: as §4, §1, §2, §3

[7] = test system: HIV-1 variant K101E; test: as above; assay type: cell-based
Source text: as §4, §1, §2, §3

[8] = test system: HIV-1 variant K103N; test: as above; assay type: cell-based; conditions: isolate K103N
Source text: as §4, §1, §2, §3

[9] = test system: HIV-1 variant L100I; test: as above; assay type: cell-based
Source text: as §4, §1, §2, §3

[10] = test system: HIV-1 variant L74V; test: as above; assay type: cell-based
Source text: as §4, §1, §2, §3

[11] = test system: HIV-1 variant V106A; test: as above; assay type: cell-based
Source text: as §4, §1, §2, §3

[12] = test system: HIV-1 variant V108I; test: as above; assay type: cell-based
Source text: as §4, §1, §2, §3

[13] = test system: HIV-1 variant V179D; test: as above; assay type: cell-based; conditions: isolate V179D
Source text: as §4, §1, §2, §3

[14] = test system: HIV-1 variant Y181C; test: as above; assay type: cell-based; conditions: isolate Y181C
Source text: as §4, §1, §2, §3

[15] = test system: HIV-1 variant Y188C; test: as above; assay type: cell-based
Source text: as §4, §1, §2, §3

[16] = test system: HIV-1 isolate 4xAZT/L100I; test: as above; assay type: cell-based
Protocol: The various HIV isolates tested in the Figures are those corresponding to wild-type virus (NL4-3) and the other strains listed by their RT mutations. The three 4xAZT isolates included in the Figures represent AZT drug-resistant variants. […]
as §1, with “Briefly,” for “In this Example, the antiviral and cellular toxicity of NNRTIs was investigated, using the cytopathic cell killing assay described by Yang (Yang et al., "Characteristics of a Group of Non-nucleoside Reverse Transcriptase Inhibitors with Structural Diversity and Potent Anti-Human Immunodeficiency Virus Activity," Leukemia 9:S75-S85 [1995]). Briefly,”
as §2
The in vitro therapeutic index (TI50) was defined as the fold-difference between the EC50 and IC50.

[17] = Table 11, CEMSS/NL4-3, NRVC = reduction in viral CPE not seen (footnote)
[18] = Human immunodeficiency virus 1, MT4, Table 4
[19] = Human immunodeficiency virus 1, MT4, Table 9
[20] = Human immunodeficiency virus 1, MT4, Table 8

For `Fc1cccc(F)c1Cn1c(-c2c(F)cccc2F)nc2ccccc21` [compound 26, 1-(2,6-difluorobenzyl)-2-(2,6-difluorophenyl)benzimidazole], the inhibition at 10 µM ([1]; Table 1, WT RT, 10 µM drug concentration, read-out: %inhibn (10µM)) was 93%, the IC50 ([1]; Table 1, quantity of drug required to reduce WT RT enzyme activity by 50%) was 110 nM and the “%inhibn (10µM)” value ([1]; Table 2, WT RT, 10 µM drug concentration) was 93%. It also gave an IC50 ([1]; Table 11, WT RT) of 110 nM, an EC50 [2, 17] of 1700 nM and an EC50 ([3]; Human immunodeficiency virus 1, NL43, MT4, Table 4, isolate NL4-3 (WT)) of 1850 nM. The EC50 ([3]; Human immunodeficiency virus 1, NL43, MT4, Table 9, isolate NL4.3) was 2200 nM, the EC50 ([4]; Human immunodeficiency virus 1, MT4, Table 4, isolate 4xAZT/Y181C) was > 20 µM and the EC50 ([4]; Human immunodeficiency virus 1, MT4, Table 9, isolate 4XAZT /Y181C) was 20 µM. The EC50 ([5]; Human immunodeficiency virus 1, MT4, Table 4, isolate 4xAZT) was 270 nM, the EC50 ([5]; Human immunodeficiency virus 1, MT4, Table 9, isolate 4XAZT) was 300 nM and the EC50 ([6]; Human immunodeficiency virus 1, MT4, Table 4, isolate A98G) was 4.75 µM. For the same compound, the EC50 ([6]; Human immunodeficiency virus 1, MT4, Table 9, isolate A98G) was 4.7 µM, the EC50 ([7]; Human immunodeficiency virus 1, MT4, Table 4, isolate K101E) was > 20 µM and the EC50 ([7]; Human immunodeficiency virus 1, MT4, Table 9, isolate KIOIE) was > 20 µM. The EC50 [8, 18] was 12.9 µM, the EC50 [8, 19] was > 10 µM and the EC50 ([9]; Human immunodeficiency virus 1, MT4, Table 4, isolate L1001) was 1360 nM. For the same compound, the EC50 ([9]; Human immunodeficiency virus 1, MT4, Table 9, isolate L1001) was 1300 nM, the EC50 ([10]; Human immunodeficiency virus 1, MT4, Table 4, isolate L74V) was 460 nM and the EC50 ([10]; Human immunodeficiency virus 1, MT4, Table 9, isolate 1.74 V) was 1900 nM. The EC50 ([11]; Human immunodeficiency virus 1, MT4, Table 4, isolate V106A) was > 20 µM, the EC50 ([11]; Human immunodeficiency virus 1, MT4, Table 9, isolate V106A) was > 20 µM and the EC50 ([12]; Human immunodeficiency virus 1, MT4, Table 4, isolate V108I) was 10.4 µM. For the same compound, the EC50 ([12]; Human immunodeficiency virus 1, MT4, Table 9, isolate V1081) was > 10 µM, the EC50 [13, 18] was 2300 nM and the EC50 [13, 19] was 2900 nM. It also gave an EC50 [14, 18] of 15.2 µM, an EC50 [14, 19] of 14 µM and an EC50 ([15]; Human immunodeficiency virus 1, MT4, Table 4, isolate Y188C) of 11.7 µM. For the same compound, the EC50 ([15]; Human immunodeficiency virus 1, MT4, Table 9, isolate Y188C) was > 10 µM, the EC50 ([16]; Human immunodeficiency virus 1, MT4, Table 4, isolate 4xAZT/L.1001) was 840 nM and the EC50 ([16]; Human immunodeficiency virus 1, MT4, Table 9, isolate 4XAZT /L1001) was 900 nM.

`CC(=O)N(C)c1cccc2c1nc(-c1c(F)cccc1F)n2Cc1c(F)cccc1F` [compound 57, 1-(2,6-Difluorobenzyl)-2-(2,6-difluorophenyl)-4-(N-methylacetamido)-benzimidazole] gave an EC50 ([2]; Table 7, concentration reducing cell killing or virus production by 50%, HIV-1 WT) of 20 nM, an EC50 [2, 17] of 20 nM and an EC50 ([2]; cytopathic cell killing assay, HIV-1 WT) of 20 nM. For the same compound, the “-fold more potent than the 4-methyl or 4-amino compounds” value ([2]; cytopathic cell killing assay) was 20 fold, the EC50 ([3]; Human immunodeficiency virus 1, NL43, MT4, Table 8, isolate N1.43) was 40 nM and the EC50 ([4]; Human immunodeficiency virus 1, MT4, Table 8, isolate 4XAZT /Y181C) was > 10 µM. The EC50 ([5]; Human immunodeficiency virus 1, MT4, Table 8, isolate 4XAZT) was > 10000 nM, the EC50 ([6]; Human immunodeficiency virus 1, MT4, Table 8, isolate A9SG) was 0.1 µM and the EC50 ([7]; Human immunodeficiency virus 1, MT4, Table 8, isolate K101E) was 0.6 µM. For the same compound, the EC50 [8, 20] was > 10 µM, the EC50 ([9]; Human immunodeficiency virus 1, MT4, Table 8, isolate 1.1001) was 1700 nM and the EC50 ([10]; Human immunodeficiency virus 1, MT4, Table 8, isolate 1.74V) was 70 nM. For the same compound, the EC50 ([11]; Human immunodeficiency virus 1, MT4, Table 8, isolate V 106A) was 0.05 µM, the EC50 ([12]; Human immunodeficiency virus 1, MT4, Table 8, isolate V1081) was > 10 µM and the EC50 [13, 20] was 400 nM. The EC50 ([15]; Human immunodeficiency virus 1, MT4, Table 8, isolate Y 188C) was 0.5 µM and the EC50 ([16]; Human immunodeficiency virus 1, MT4, Table 8, isolate 4XA7T L 1001) was 1800 nM.
